How the values were obtained:
[1] = test system: HBeAg (surrogate marker for cccDNA) in HepDES19 cells; test: Engineered HepDES19 primary screen assay (HBeAg ELISA); format: cell-based, HBV; details: Hepatitis B virus, HepDES19, 120 h, read-out: IC50 (HBeAg level, HepDES19 primary screen assay), HepDES19 cells, 5 days compound incubation, HBeAg ELISA
Summary of the method: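 IC50 values come from 4-parameter logistic fits of HBeAg ELISA signal, the cccDNA surrogate, with CCK-8 run in parallel for viability. Compounds at half-log dilutions with 1% DMSO were applied for 5 days at 37 °C to HepDES19 cells previously cultured 8 days without Tet.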

[2] = Human microsome stability assay; format: in vitro ADME; details: human liver microsomes, 1 μM test compound, 0.5 mg/mL microsomal protein, 37° C., pH 7.4, 0-30 minutes
Summary of the method: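 Parent compound remaining was measured by LC-MS/MS at 0, 3, 6, 9, 15 and 30 min, following ACN quench. Reactions held 1 μM compound and 0.5 mg/mL human liver microsomal protein in pH 7.4 phosphate buffer at 37 °C, started by NADPH regeneration (1 mM NADP, 1 mM MgCl2); controls lacked NADPH.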

Row | SMILES | IC50 [1] | Clearance of Human microsome [2]
1 | Cc1cc(-c2cc(=O)c3cccc(Cl)c3o2)c(OCC(=O)N2CCC[C@H]2C(=O)O)cc1Br [Example A080, (2S)-1-[2-[5-bromo-2-(8-chloro-4-oxo-chromen-2-yl)-4-methyl-phenoxy]acetyl]pyrrolidine-2-carboxylic acid] | 17.5 µM | 0.369 L/h/kg
2 | O=c1cc(-c2cc(Br)c(F)cc2OCCO[C@H]2C[C@@H](C(=O)O)C2)oc2c(Cl)cccc12 [Example C032-A, Cis-3-[2-[4-bromo-2-(8-chloro-4-oxo-chromen-2-yl)-5-fluoro-phenoxy]ethoxy]cyclobutanecarboxylic acid] | 19.2 µM | 0.576 L/h/kg
3 | O=C(O)[C@@H]1CCN(C(=O)COCCOc2cc(Br)ccc2-c2cc(=O)c3cccc(Cl)c3o2)C1 [Example C111, (3R)-1-[2-[2-[5-bromo-2-(8-chloro-4-oxo-chromen-2-yl)phenoxy]ethoxy]acetyl]pyrrolidine-3-carboxylic acid] | 1.25 µM | 0.369 L/h/kg
4 | Cc1cc(-c2cc(=O)c3cccc(Cl)c3o2)c(OCCOCC(=O)O)cc1Br [Example C021, 2-[2-[5-bromo-2-(8-chloro-4-oxo-chromen-2-yl)-4-methyl-phenoxy]ethoxy]acetic acid] | 9.25 µM | 0.46 L/h/kg
5 | COc1cc(-c2cc(=O)c3cccc(Cl)c3o2)c(OCCOCC(=O)O)cc1Br [Example C020, 2-[2-[5-bromo-2-(8-chloro-4-oxo-chromen-2-yl)-4-methoxy-phenoxy]ethoxy]acetic acid] | 5.55 µM | 0.369 L/h/kg
6 | Cc1ccc(-c2cc(=O)c3cccc(Cl)c3o2)c(OCC(=O)N2CCC[C@@H]2C(=O)O)c1 [Example A077, (2R)-1-[2-[2-(8-chloro-4-oxo-chromen-2-yl)-5-methyl-phenoxy]acetyl]pyrrolidine-2-carboxylic acid] | 9 µM | 0.514 L/h/kg
7 | CC(C)(CCCOc1cc(OC(F)(F)F)ccc1-c1cc(=O)c2cccc(Cl)c2o1)C(=O)O [Example A071, 5-[2-(8-chloro-4-oxo-chromen-2-yl)-5-(trifluoromethoxy)phenoxy]-2,2-dimethyl-pentanoic acid] | 6.46 µM | 0.444 L/h/kg
8 | COc1cc(OCCO[C@H]2C[C@@H](C(=O)O)C2)c(-c2cc(=O)c3cccc(Cl)c3o2)cc1OC [Example C072, Cis-3-[2-[2-(8-chloro-4-oxo-chromen-2-yl)-4,5-dimethoxy-phenoxy]ethoxy]cyclobutanecarboxylic acid] | 6.31 µM | 0.369 L/h/kg
9 | Cc1cc(-c2cc(=O)c3cccc(Cl)c3o2)c(O[C@H]2C[C@@H](C(=O)O)N(S(=O)(=O)c3ccccc3)C2)cc1Cl [Example B084, (2S,4S)-1-(benzenesulfonyl)-4-[5-chloro-2-(8-chloro-4-oxo-chromen-2-yl)-4-methyl-phenoxy]pyrrolidine-2-carboxylic acid] | 0.533 µM | 0.369 L/h/kg
10 | CC1(C)C(=O)Nc2cc(-c3cc(=O)c4cccc(Cl)c4o3)c(OCCO[C@H]3C[C@@H](C(=O)O)C3)cc21 [Example C092, cis-3-[2-[6-(8-chloro-4-oxo-chromen-2-yl)-3,3-dimethyl-2-oxo-indolin-5-yl]oxyethoxy]cyclobutanecarboxylic acid] | 11.2 µM | 0.369 L/h/kg
11 | COc1cc(OCCC(=O)NS(=O)(=O)C2CC2)c(-c2cc(=O)c3cccc(Cl)c3o2)cc1OC [Example A085, 3-[2-(8-chloro-4-oxo-chromen-2-yl)-4,5-dimethoxy-phenoxy]-N-cyclopropylsulfonyl-propanamide] | 4.92 µM | 0.369 L/h/kg
12 | COc1ccc(-c2cc(=O)c3cccc(Cl)c3o2)c(OCCO[C@H]2C[C@H](C(=O)O)C2)c1 [Example C039-B, Trans-3-[2-[2-(8-chloro-4-oxo-chromen-2-yl)-5-methoxy-phenoxy]ethoxy]cyclobutanecarboxylic acid] | 17.5 µM | 0.369 L/h/kg
13 | COc1cc(OCCO[C@H]2C[C@@H](C(=O)O)C2)c(-c2cc(=O)c3cccc(Cl)c3o2)cc1O [Example C083, cis-3-[2-[2-(8-chloro-4-oxo-chromen-2-yl)-4-hydroxy-5-methoxy-phenoxy]ethoxy]cyclobutanecarboxylic acid] | 4.59 µM | 0.369 L/h/kg
14 | O=c1cc(-c2cc(F)c(Br)cc2OCCO[C@H]2C[C@H](C(=O)O)C2)oc2c(Cl)cccc12 [Example C044-B, Trans-3-[2-[5-bromo-2-(8-chloro-4-oxo-chromen-2-yl)-4-fluoro-phenoxy]ethoxy]cyclobutanecarboxylic acid] | 1.57 µM | 0.56 L/h/kg
15 | COc1ccc2c(=O)cc(-c3ccc(C(F)(F)F)cc3OCCC(=O)O)oc2c1Cl [Example A032, 3-[2-(8-chloro-7-methoxy-4-oxo-chromen-2-yl)-5-(trifluoromethyl)phenoxy]propanoic acid] | 13 µM | 0.369 L/h/kg
16 | COc1cc(O[C@H]2C[C@@H](C(=O)NS(=O)(=O)C3CC3)C2)c(-c2cc(=O)c3cccc(Cl)c3o2)cc1Br [Example B056-A, Cis-3-[4-bromo-2-(8-chloro-4-oxo-chromen-2-yl)-5-methoxy-phenoxy]-N-cyclopropylsulfonyl-cyclobutanecarboxamide] | 9.44 µM | 0.389 L/h/kg
17 | O=C(O)[C@@H]1CCCN1C(=O)CCOc1cc(Br)ccc1-c1cc(=O)c2cccc(Cl)c2o1 [Example A076, (2S)-1-[3-[5-bromo-2-(8-chloro-4-oxo-chromen-2-yl)phenoxy]propanoyl]pyrrolidine-2-carboxylic acid] | 14.1 µM | 0.369 L/h/kg
18 | O=c1cc(-c2ccc(C(F)(F)F)cc2OCCO[C@H]2C[C@@H](C(=O)O)C2)oc2c(Cl)ccc(O)c12 [Example C099, cis-3-[2-[2-(8-chloro-5-hydroxy-4-oxo-chromen-2-yl)-5-(trifluoromethyl)phenoxy]ethoxy]cyclobutanecarboxylic acid] | 15.7 µM | 0.427 L/h/kg
19 | CS(=O)(=O)NC(=O)[C@H]1C[C@H](Oc2cc(Br)ccc2-c2cc(=O)c3cccc(Cl)c3o2)C1 [Example B044-B, trans-3-[5-bromo-2-(8-chloro-4-oxo-chromen-2-yl)phenoxy]-N-methylsulfonyl-cyclobutanecarboxamide] | 3.72 µM | 0.369 L/h/kg
20 | CS(=O)(=O)NC(=O)[C@H]1C[C@H](Oc2cc(C(F)(F)F)ccc2-c2cc(=O)c3cccc(Cl)c3o2)C1 [Example B048-B, Trans-3-[2-(8-chloro-4-oxo-chromen-2-yl)-5-(trifluoromethyl)phenoxy]-N-methylsulfonyl-cyclobutanecarboxamide] | 3.08 µM | 0.369 L/h/kg
21 | COc1cc(-c2cc(=O)c3cccc(Cl)c3o2)c(OCCO[C@H]2C[C@@H](C(=O)O)C2)cc1O [Example C076, Cis-3-[2-[2-(8-chloro-4-oxo-chromen-2-yl)-5-hydroxy-4-methoxy-phenoxy]ethoxy]cyclobutanecarboxylic acid] | 0.502 µM | 0.369 L/h/kg
22 | COc1cc(OCCOCC(=O)O)c(-c2cc(=O)c3cccc(Cl)c3o2)cc1OC [Example C022, 2-[2-[2-(8-chloro-4-oxo-chromen-2-yl)-4,5-dimethoxy-phenoxy]ethoxy]acetic acid] | 5.53 µM | 0.369 L/h/kg
23 | O=c1cc(-c2ccccc2OCCO[C@H]2C[C@H](C(=O)O)C2)oc2c(C(F)(F)F)cccc12 [Example C047-B, Trans-3-[2-[2-[4-oxo-8-(trifluoromethyl)chromen-2-yl]phenoxy]ethoxy]cyclobutanecarboxylic acid] | 14 µM | 0.369 L/h/kg
24 | O=C(O)COCCOc1cc(OC(F)(F)F)ccc1-c1cc(=O)c2cccc(Cl)c2o1 [Example C023, 2-[2-[2-(8-chloro-4-oxo-chromen-2-yl)-5-(trifluoromethoxy)phenoxy]ethoxy]acetic acid] | 3.99 µM | 0.369 L/h/kg
25 | O=c1cc(-c2c(F)cc(Br)cc2OCCO[C@H]2C[C@@H](C(=O)O)C2)oc2c(Cl)cccc12 [Example C071, Cis-3-[2-[5-bromo-2-(8-chloro-4-oxo-chromen-2-yl)-3-fluoro-phenoxy]ethoxy]cyclobutanecarboxylic acid] | 10.8 µM | 0.369 L/h/kg
26 | COc1cc(-c2cc(=O)c3cccc(Cl)c3o2)c(OCCC(=O)O)cc1OCC(F)(F)F [Example A041, 3-[2-(8-chloro-4-oxo-chromen-2-yl)-4-methoxy-5-(2,2,2-trifluoroethoxy)phenoxy]propanoic acid] | 6.06 µM | 0.369 L/h/kg
